{"source": "paper PMC6231127", "about": "“The structure of the deubiquitinase USP15 reveals a misaligned catalytic triad and an open ubiquitin-binding channel” (The Journal of Biological Chemistry, 2018)", "key": {"[1]": {"molecular_target": "T1, FL-USP15 (Homo sapiens, UniProt Q9Y4E8)", "T1 sequence (Q9Y4E8 2-952 isoform Q9Y4E8-2)": "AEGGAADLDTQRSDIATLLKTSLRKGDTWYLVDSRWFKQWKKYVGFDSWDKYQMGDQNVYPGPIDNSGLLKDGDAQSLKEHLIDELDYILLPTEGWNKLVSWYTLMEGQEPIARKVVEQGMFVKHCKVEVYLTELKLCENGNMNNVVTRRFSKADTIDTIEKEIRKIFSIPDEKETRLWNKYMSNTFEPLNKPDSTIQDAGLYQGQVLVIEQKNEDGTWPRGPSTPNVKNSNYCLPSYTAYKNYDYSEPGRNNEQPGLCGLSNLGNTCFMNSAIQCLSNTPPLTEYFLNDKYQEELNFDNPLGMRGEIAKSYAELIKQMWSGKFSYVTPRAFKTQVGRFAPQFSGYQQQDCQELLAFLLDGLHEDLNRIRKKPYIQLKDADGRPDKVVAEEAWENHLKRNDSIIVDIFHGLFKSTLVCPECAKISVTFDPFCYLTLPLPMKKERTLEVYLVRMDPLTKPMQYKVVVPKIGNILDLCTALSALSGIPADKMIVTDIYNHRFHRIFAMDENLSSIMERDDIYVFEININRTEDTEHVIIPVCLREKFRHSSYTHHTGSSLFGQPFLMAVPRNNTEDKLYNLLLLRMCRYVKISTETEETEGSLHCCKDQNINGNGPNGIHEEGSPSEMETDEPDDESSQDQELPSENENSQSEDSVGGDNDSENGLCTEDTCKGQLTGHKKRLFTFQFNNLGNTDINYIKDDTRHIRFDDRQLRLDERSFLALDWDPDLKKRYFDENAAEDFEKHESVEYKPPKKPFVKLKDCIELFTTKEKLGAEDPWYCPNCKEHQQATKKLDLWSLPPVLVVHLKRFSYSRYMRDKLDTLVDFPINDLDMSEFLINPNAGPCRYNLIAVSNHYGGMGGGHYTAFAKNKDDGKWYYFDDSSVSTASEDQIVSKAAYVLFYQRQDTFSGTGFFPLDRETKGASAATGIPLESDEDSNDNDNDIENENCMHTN", "assay": "linear diubiquitin gel shift cleavage assay (SDS-PAGE, ImageJ)", "type": "biochemical"}, "[2]": {"molecular_target": "T2, USP15-D1D2 (Homo sapiens, UniProt Q9Y4E8, DEL469-785)", "T2 construct": "two copies in the asymmetric unit", "assay": "X-ray crystal structure of complex, […] Å", "type": "binding", "conditions": "co-crystal, 0.1 M Na-Hepes pH 7.0, 14% MPD, 20 °C; S1' site near BL2 loop; ligand density in one of two copies"}}, "data": [{"compound": "O=C1c2c(O)ccc(O)c2C(=O)c2c(NCCNCCO)ccc(NCCNCCO)c21", "note": "[mitoxantrone, 1,4-dihydroxy-5,8-bis[2-(2-hydroxyethylamino)ethylamino]anthracene-9,10-dione]", "values": [{"measurement": "IC50", "setting": "[1]", "value": "33 ± 11", "unit": "µM"}, {"measurement": "X-ray crystal structure of complex, 2.09 Å", "setting": "[2]", "value": "This USP15–mitoxantrone complex structure revealed predominantly hydrophobic interactions between mitoxantrone and USP15 residues"}]}]}
